Results taken from US20250195521A1 (Revolution Medicines, Inc., priority 2020, published 2025).
Read-outs that look alike come from different tables or passages of the source.

Tests used:
[1] = system: NCI-H358 cells (K-Ras G12C); experiment: CellTiter-Glo cell viability, NCI-H358; format: cell-based, human; settings: K-Ras G12C, 5-day treatment, read-out: H358 Cell Viability IC50
Procedure, shortened: (§1)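 Five-day treatment of K-Ras mutant cells with directly dispensed compound; ATP-based luminescence endpoint. Percent of DMSO signal fit to four-parameter logistic curve.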

[2] = system: Capan-1 cells (K-Ras G12V); experiment: CellTiter-Glo cell viability, Capan-1; format: cell-based, human; settings: K-Ras G12V, 5-day treatment, read-out: Capan-1 Cell Viability IC50
Procedure, shortened: as §1

KRAS G12C = KRAS G12C (Homo sapiens (Human), UniProt P01116+P62937, G12C); experiment: Ras-Raf disruption/FRET/MOA assay (BRAF RBD, Cyclophilin A); format: biochemical; settings: read-out: KRAS G12C FRET IC50
Procedure, shortened: (§2)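 TR-FRET readout: anti-His Eu-W1024 (10 nM) and anti-GST allophycocyanin (50 nM) added after 3 h, 25° C compound incubation, then 1.5 h more. Decrease in FRET ratio versus DMSO wells marks Ras:RAF disruption; IC50 reported.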

KRAS G12D = KRAS G12D (Homo sapiens (Human), UniProt P01116+P62937, G12D); experiment: as above; format: biochemical; settings: read-out: KRAS G12D FRET IC50
Procedure, shortened: as §2

KRAS G12S = KRAS G12S (Homo sapiens (Human), UniProt P01116+P62937, G12S); experiment: as above; format: biochemical; settings: read-out: KRAS G12S FRET IC50
Procedure, shortened: as §2

KRAS G12V = KRAS G12V (Homo sapiens (Human), UniProt P01116+P62937, G12V); experiment: as above; format: biochemical; settings: read-out: KRAS G12V FRET IC50
Procedure, shortened: as §2

KRAS G13C = KRAS G13C (Homo sapiens (Human), UniProt P01116+P62937, G13C); experiment: as above; format: biochemical; settings: read-out: KRAS G13C FRET IC50
Procedure, shortened: as §2

KRAS G13D = KRAS G13D (Homo sapiens (Human), UniProt P01116+P62937, G13D); experiment: as above; format: biochemical; settings: read-out: KRAS G13D FRET data IC50
Procedure, shortened: as §2

KRAS WT = KRAS WT (Homo sapiens (Human), UniProt P01116+P62937); experiment: as above; format: biochemical; settings: read-out: KRAS WT FRET data IC50
Procedure, shortened: as §2

NRAS G12C = NRAS G12C (Homo sapiens (Human), UniProt P01111+P62937, G12C); experiment: as above; format: biochemical; settings: read-out: NRAS G12C FRET data IC50
Procedure, shortened: as §2

NRAS Q61R = NRAS Q61R (Homo sapiens (Human), UniProt P01111+P62937, Q61R); experiment: as above; format: biochemical
Procedure, shortened: as §2

NRAS WT = NRAS WT (Homo sapiens (Human), UniProt P01111+P62937); experiment: as above; format: biochemical
Procedure, shortened: as §2

[3] = system: K-Ras G12C (NCI-H358 cells); experiment: Potency assay: pERK in NCI-H358 cells; format: cell-based, human; settings: Homo sapiens; NCI-H358 cells, 4 hours; read-out: pERK EC50 (H358 KRAS G12C)
Procedure, shortened: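 Cells plated the day before were exposed for 4 h at 37° C, 5% CO2 to a 10-point, 3-fold DMSO dilution series (10 mM top stock), in duplicate. Phospho-ERK was read by AlphaLISA SureFire Ultra or by In-Cell Western with DRAQ5 DNA stain, and IC50 came from a 4-parameter sigmoidal fit.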

KRAS Q61H = KRAS Q61H (Homo sapiens (Human), UniProt P01116+P62937, Q61H); experiment: Ras-Raf disruption/FRET/MOA assay (BRAF RBD, Cyclophilin A); format: biochemical
Procedure, shortened: as §2

NCI-H358 (K-Ras G12C) = experiment: CellTiter-Glo cell viability assay, NCI-H358; format: cell-based, human; settings: Homo sapiens, NCI-H358, 120 h, 5-day treatment; read-out: H358 Cell Viability assay data (K-Ras G12C, IC50)
Procedure, shortened: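 Five-day compound treatment of NCI-H358 cells, then CellTiter-Glo luminescence, percent of DMSO, four-parameter logistic fit.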

[4] = molecular target: K-Ras G12C(GMP-PNP) binding to BRAF RBD (Homo sapiens (Human), UniProt P01116+P62937, G12C); experiment: Disruption of BRAF RBD interaction with K-Ras (FRET / MOA assay), K-Ras G12C; format: biochemical; settings: read-out: KRAS G12C FRET IC50
Procedure, shortened: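 Incubation of compound (up to 30 μM final, 3-fold steps) with GMP-PNP-type loaded Ras isoform, cyclophilin A and BRAF RBD ran 3 h at 25° C, followed by 1.5 h with detection antibodies. Disruption appears as a reduced TR-FRET ratio compared with DMSO controls, expressed as IC50.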

Chain of KRAS G13C (P01116 other isoform, or with tags, fused parts or gaps G13C): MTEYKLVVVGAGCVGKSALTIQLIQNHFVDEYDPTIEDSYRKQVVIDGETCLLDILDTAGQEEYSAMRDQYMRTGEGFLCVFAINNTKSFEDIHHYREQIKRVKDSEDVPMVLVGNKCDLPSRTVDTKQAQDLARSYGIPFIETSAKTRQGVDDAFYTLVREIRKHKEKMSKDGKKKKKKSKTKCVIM
Chain of KRAS G13C (P62937 whole entry): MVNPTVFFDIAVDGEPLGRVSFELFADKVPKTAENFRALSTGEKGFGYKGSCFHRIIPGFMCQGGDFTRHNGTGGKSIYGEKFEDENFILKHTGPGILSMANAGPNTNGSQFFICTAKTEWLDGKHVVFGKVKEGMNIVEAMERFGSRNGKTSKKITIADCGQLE
Chain of KRAS G12D (P01116 other isoform, or with tags, fused parts or gaps G12D): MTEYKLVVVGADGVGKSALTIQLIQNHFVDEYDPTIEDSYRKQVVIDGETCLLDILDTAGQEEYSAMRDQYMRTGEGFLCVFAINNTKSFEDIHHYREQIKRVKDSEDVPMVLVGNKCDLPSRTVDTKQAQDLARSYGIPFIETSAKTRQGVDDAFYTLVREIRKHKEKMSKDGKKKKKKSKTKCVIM
Chain of KRAS G12D (P62937 whole entry): as the sequence (P62937 whole entry) above
Chain of NRAS Q61R (P01111 whole entry Q61R): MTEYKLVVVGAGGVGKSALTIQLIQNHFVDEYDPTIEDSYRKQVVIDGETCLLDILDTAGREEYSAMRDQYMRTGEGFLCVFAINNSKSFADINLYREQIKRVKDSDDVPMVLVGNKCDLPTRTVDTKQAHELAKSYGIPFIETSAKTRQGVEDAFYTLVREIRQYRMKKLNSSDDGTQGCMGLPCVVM
Chain of NRAS Q61R (P62937 whole entry): as the sequence (P62937 whole entry) above
Chain of KRAS G13D (P01116 other isoform, or with tags, fused parts or gaps G13D): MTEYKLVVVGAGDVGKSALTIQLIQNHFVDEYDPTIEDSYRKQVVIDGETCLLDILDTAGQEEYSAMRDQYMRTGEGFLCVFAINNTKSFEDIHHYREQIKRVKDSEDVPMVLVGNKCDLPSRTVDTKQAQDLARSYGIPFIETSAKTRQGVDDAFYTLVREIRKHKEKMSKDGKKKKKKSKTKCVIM
Chain of KRAS G13D (P62937 whole entry): as the sequence (P62937 whole entry) above
Chain of NRAS WT (P01111 whole entry): as the sequence (P01111 whole entry Q61R) above, with R61Q counted along it
Chain of NRAS WT (P62937 whole entry): as the sequence (P62937 whole entry) above
Chain of KRAS Q61H (P01116 other isoform, or with tags, fused parts or gaps Q61H): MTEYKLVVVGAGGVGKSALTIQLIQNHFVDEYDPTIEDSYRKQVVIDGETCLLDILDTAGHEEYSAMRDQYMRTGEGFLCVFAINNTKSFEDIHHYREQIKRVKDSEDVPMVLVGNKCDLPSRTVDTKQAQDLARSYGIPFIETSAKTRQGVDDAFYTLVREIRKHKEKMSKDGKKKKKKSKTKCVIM
Chain of KRAS Q61H (P62937 whole entry): as the sequence (P62937 whole entry) above
Chain of KRAS WT (P01116 other isoform, or with tags, fused parts or gaps): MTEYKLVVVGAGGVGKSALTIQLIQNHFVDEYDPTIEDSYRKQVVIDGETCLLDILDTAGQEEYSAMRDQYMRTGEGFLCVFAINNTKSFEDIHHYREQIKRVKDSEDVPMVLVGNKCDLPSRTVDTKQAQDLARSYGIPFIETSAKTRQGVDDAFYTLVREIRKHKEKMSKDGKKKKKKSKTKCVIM
Chain of KRAS WT (P62937 whole entry): as the sequence (P62937 whole entry) above
Chain of KRAS G12S (P01116 other isoform, or with tags, fused parts or gaps G12S): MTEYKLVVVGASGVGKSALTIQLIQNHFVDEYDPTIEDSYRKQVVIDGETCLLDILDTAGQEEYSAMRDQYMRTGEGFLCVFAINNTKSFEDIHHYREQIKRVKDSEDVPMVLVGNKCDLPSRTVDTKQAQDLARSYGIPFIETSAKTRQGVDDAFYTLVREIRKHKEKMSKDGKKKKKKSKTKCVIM
Chain of KRAS G12S (P62937 whole entry): as the sequence (P62937 whole entry) above
Chain of NRAS G12C (P01111 whole entry G12C): as the sequence (P01111 whole entry Q61R) above, with G12C, R61Q counted along it
Chain of NRAS G12C (P62937 whole entry): as the sequence (P62937 whole entry) above
Chain of KRAS G12V (P01116 other isoform, or with tags, fused parts or gaps G12V): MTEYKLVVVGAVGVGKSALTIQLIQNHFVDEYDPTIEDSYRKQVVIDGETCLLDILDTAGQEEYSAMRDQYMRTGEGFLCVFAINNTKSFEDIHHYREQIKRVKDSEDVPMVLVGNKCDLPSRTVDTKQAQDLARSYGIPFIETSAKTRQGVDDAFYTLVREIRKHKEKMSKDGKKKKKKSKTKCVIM
Chain of KRAS G12V (P62937 whole entry): as the sequence (P62937 whole entry) above
Chain of KRAS G12C (P01116-2 other isoform, or with tags, fused parts or gaps G12C): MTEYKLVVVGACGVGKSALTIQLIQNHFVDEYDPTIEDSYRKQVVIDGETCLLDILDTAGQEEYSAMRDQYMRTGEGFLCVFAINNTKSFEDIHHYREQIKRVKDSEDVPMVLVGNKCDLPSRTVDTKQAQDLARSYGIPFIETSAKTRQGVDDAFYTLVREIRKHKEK
Chain of KRAS G12C (P62937 whole entry): as the sequence (P62937 whole entry) above
Chain of K-Ras G12C(GMP-PNP) binding to BRAF RBD (P01116 other isoform, or with tags, fused parts or gaps G12C): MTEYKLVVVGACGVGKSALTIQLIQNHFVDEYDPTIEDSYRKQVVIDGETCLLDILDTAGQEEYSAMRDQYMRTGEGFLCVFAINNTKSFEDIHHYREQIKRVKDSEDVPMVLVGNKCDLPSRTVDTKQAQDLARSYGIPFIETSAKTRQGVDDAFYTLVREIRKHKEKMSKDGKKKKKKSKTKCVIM
Chain of K-Ras G12C(GMP-PNP) binding to BRAF RBD (P62937 whole entry, canonical isoform): as the sequence (P62937 whole entry) above

Row | SMILES | IC50 ([1]; Homo sapiens, NCI-H358, 120 h) [nM] | IC50 ([2]; Homo sapiens, CAPAN-1, 120 h) [nM] | IC50 (KRAS G12C) [nM] | IC50 (KRAS G12D) [nM] | IC50 (KRAS G12S) [nM] | IC50 (KRAS G12V) [nM] | IC50 (KRAS G13C) [nM] | IC50 (KRAS G13D) [nM] | IC50 (KRAS WT) [nM] | IC50 (NRAS G12C) [nM] | IC50 (NRAS Q61R) [nM] | IC50 (NRAS WT) [nM] | EC50 [3] [nM] | IC50 (KRAS Q61H) [nM] | IC50 (NCI-H358 (K-Ras G12C)) [nM] | IC50 [4] [nM] | IC50 [1] [nM] | IC50 [2] [nM]
1 | CCn1c(-c2cccnc2[C@H](C)OC)c2c3cc(ccc31)-c1csc(n1)C[C@H](NC(=O)[C@H](C(C)C)N(C)C(=O)N1CC3(CN(C)C3)C1)C(=O)N1CCC[C@H](N1)C(=O)OCC(C)(C)C2 [Compound A268] | 100 to 1000 | 100 to 1000 | 100 to 1000 | 100 to 1000 | 100 to 1000 | 100 to 1000 | 100 to 1000 | 100 to 1000 | 100 to 1000 | 10 to 100 | 100 to 1000 | 100 to 1000 | < 5000 |  |  |  |  | 
2 | CCn1c(-c2cccnc2[C@H](C)OC)c2c3cc(ccc31)-c1csc(n1)C[C@H](NC(=O)[C@H](C(C)C)N(C)C(=O)N1CC(C(C)(C)O)C1)C(=O)N1CCC[C@H](N1)C(=O)OCC(C)(C)C2 [Compound A289] |  | 10 to 100 | 10 to 100 | 100 to 1000 | 100 to 1000 | 100 to 1000 | 100 to 1000 | 100 to 1000 | 100 to 1000 | 10 to 100 | 100 to 1000 | 100 to 1000 |  | 10 to 100 |  |  |  | 
3 | CCn1c(-c2cccnc2[C@H](C)OC)c2c3cc(ccc31)-c1csc(n1)C[C@H](NC(=O)[C@H](C(C)C)N(C)C(=O)N1C[C@H]3COC[C@H]3C1)C(=O)N1CCC[C@H](N1)C(=O)OCC(C)(C)C2 [Compound A312] | 10 to 100 | 10 to 100 | 10 to 100 | 100 to 1000 | 10 to 100 | 100 to 1000 | 100 to 1000 | 100 to 1000 | 10 to 100 | 10 to 100 |  | 10 to 100 |  | 10 to 100 | > 10000 | > 10000 |  | 
4 | CCn1c(-c2cccnc2[C@H](C)OC)c2c3cc(ccc31)-c1csc(n1)C[C@H](NC(=O)[C@H](C(C)C)N(C)C(=O)N1CC(C(=O)O)C1)C(=O)N1CCC[C@H](N1)C(=O)OCC(C)(C)C2 [Compound A344] |  | > 10000 | 100 to 1000 | 1000 to 10000 | 100 to 1000 | 100 to 1000 | 100 to 1000 | 1000 to 10000 | 100 to 1000 | 100 to 1000 | 100 to 1000 | 100 to 1000 | < 5000 | 100 to 1000 |  |  |  | 
5 | CCn1c(-c2cccnc2[C@H](C)OC)c2c3cc(ccc31)-c1csc(n1)C[C@H](NC(=O)[C@H](C(C)C)N(C)C(=O)N1CC(O)C1)C(=O)N1CCC[C@H](N1)C(=O)OCC(C)(C)C2 [Compound A358] |  | 10 to 100 | 10 to 100 | 100 to 1000 | 100 to 1000 | 100 to 1000 | 100 to 1000 | 100 to 1000 | 100 to 1000 | 10 to 100 | 100 to 1000 | 100 to 1000 | < 5000 | 10 to 100 |  |  |  | 
6 | CCn1c(-c2cccnc2[C@H](C)OC)c2c3cc(ccc31)-c1csc(n1)C[C@H](NC(=O)N1CCC1)C(=O)N1CCC[C@H](N1)C(=O)OCC(C)(C)C2 [Compound A369] |  |  | 100 to 1000 | 1000 to 10000 | 100 to 1000 | 100 to 1000 | 100 to 1000 | 100 to 1000 |  |  | 100 to 1000 |  |  | 100 to 1000 |  |  | 100 to 1000 | 100 to 1000
7 | CCn1c(-c2cccnc2[C@H](C)OC)c2c3cc(ccc31)-c1csc(n1)C[C@H](NC(=O)[C@H](C(C)C)N(C)C(=O)N1CC(C#N)(N(C)C)C1)C(=O)N1CCC[C@H](N1)C(=O)OCC(C)(C)C2 [Compound A452] |  |  |  |  |  |  |  |  |  |  | 100 to 1000 | 100 to 1000 | < 5000 | 100 to 1000 |  |  |  | 
8 | CCn1c(-c2cccnc2[C@H](C)OC)c2c3cc(ccc31)-c1csc(n1)C[C@H](NC(=O)[C@H](C(C)C)N(C)C(=O)N1CC([C@@H](CO)OC)C1)C(=O)N1CCC[C@H](N1)C(=O)OCC(C)(C)C2 [Compound A514] |  | 10 to 100 | 10 to 100 | 100 to 1000 | 100 to 1000 | 100 to 1000 | 100 to 1000 | 100 to 1000 | 100 to 1000 | 10 to 100 | 100 to 1000 | 100 to 1000 |  | 10 to 100 |  |  |  | 
9 | CCn1c(-c2cccnc2[C@H](C)OC)c2c3cc(ccc31)-c1csc(n1)C[C@H](NC(=O)[C@H](C(C)C)N(C)C(=O)N1CC(C(=O)N3CCOCC3)C1)C(=O)N1CCC[C@H](N1)C(=O)OCC(C)(C)C2 [Compound A543] |  | 10 to 100 | 10 to 100 | 100 to 1000 | 100 to 1000 | 100 to 1000 | 100 to 1000 | 100 to 1000 | 100 to 1000 | 10 to 100 | 100 to 1000 | 100 to 1000 |  | 10 to 100 |  |  |  | 
10 | CCn1c(-c2cccnc2[C@H](C)OC)c2c3cc(ccc31)-c1csc(n1)C[C@H](NC(=O)[C@H](C(C)C)N(C)C(=O)N1CCC13COC3)C(=O)N1CCC[C@H](N1)C(=O)OCC(C)(C)C2 [Compound A560] | 10 to 100 | 100 to 1000 | 10 to 100 | 100 to 1000 | 100 to 1000 | 100 to 1000 | 100 to 1000 | 100 to 1000 | 10 to 100 | 10 to 100 |  | 10 to 100 | < 5000 | 10 to 100 |  |  |  | 
